Twelve compounds from PubChem BioAssay AID651581 (Sanford-Burnham Center for Chemical Genomics, 2012) can be followed below.

By IC50 is commonly meant the concentration needed to halve the response being measured.

Assay [1] has as its target Endothelial PAS domain-containing protein 1 (Homo sapiens) (UniProt Q99814). The assay is described as follows: HIF-2a and HIF-1a reporter inhibition panel, dose response, selectivity assay for HIF-2a inhibitor project, cell-based, luminescence (AID 651581).
Assay [2] concerns the target Hypoxia-inducible factor 1-alpha (Homo sapiens) (UniProt Q16665). The assay is described as above. The following applies: HIF-1a.

Activity calls are given as the source filed them. How the calls were made is not given here.

Chain of Hypoxia-inducible factor 1-alpha (Homo sapiens) (Q16665 whole entry, looked up): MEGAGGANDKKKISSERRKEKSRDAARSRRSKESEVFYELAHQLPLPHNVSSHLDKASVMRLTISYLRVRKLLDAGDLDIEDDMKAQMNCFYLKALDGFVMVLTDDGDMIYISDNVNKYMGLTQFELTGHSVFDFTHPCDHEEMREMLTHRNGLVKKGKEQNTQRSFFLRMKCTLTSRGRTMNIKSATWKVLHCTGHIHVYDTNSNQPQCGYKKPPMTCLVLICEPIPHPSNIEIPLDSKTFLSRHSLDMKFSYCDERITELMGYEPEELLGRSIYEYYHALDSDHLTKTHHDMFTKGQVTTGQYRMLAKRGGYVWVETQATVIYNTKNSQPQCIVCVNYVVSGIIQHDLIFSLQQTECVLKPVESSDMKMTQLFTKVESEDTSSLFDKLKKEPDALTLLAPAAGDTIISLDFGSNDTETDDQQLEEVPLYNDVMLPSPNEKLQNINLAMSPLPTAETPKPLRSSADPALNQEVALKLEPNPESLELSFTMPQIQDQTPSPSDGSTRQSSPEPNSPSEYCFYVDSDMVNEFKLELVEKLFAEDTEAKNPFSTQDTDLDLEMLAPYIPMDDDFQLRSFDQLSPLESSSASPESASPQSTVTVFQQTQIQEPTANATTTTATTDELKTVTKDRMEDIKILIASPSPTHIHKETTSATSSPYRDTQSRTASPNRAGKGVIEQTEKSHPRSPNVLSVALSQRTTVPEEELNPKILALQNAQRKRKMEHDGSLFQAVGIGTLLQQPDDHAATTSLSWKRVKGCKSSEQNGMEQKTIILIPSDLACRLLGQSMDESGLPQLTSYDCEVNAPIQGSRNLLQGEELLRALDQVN

With `O=C(Nc1sc2c(c1C(=O)O)CCC2)c1ccccc1Cl`, the IC50 was over 99 µM in assay [1] (HIF-2a PANC, run 1); 50.5 µM in assay [1] (HIF-2a PANC, run 2); > 99 µM (inactive) in assay [1] (HIF-2a, mean of runs); over 99 µM in assay [1] (HIF-2a, run 1); over 99 µM in assay [1] (HIF-2a, run 2); 85.7 µM in assay [2] (run 1). The compound also gave an IC50 in assay [2] (run 2) of over 99 µM.
Turning to `CC(=O)c1ccc(NC(=O)c2cnn3ccccc23)cc1`, the IC50 in assay [1] (HIF-2a PANC, mean of runs) was 18.4 µM; in assay [1] (HIF-2a PANC, run 1), 20.3 µM; in assay [1] (HIF-2a PANC, run 2), 16.6 µM; in assay [1] (HIF-2a, run 1) it was 11.7 µM; in assay [1] (HIF-2a, run 2), 9.93 µM; in assay [2] (run 1) it was 12.9 µM. In assay [2] (run 2), this compound displayed a half-maximal inhibitory concentration (IC50) of 20.6 µM. Also, the IC50 result is “inactive” in assay [1] (HIF-2a, mean of runs) and “inactive” in assay [2] (mean of runs).
As for `CCOc1ccc(C(=O)Nc2nnc(SCC(=O)NCC3CCCO3)s2)cc1` (stereo not given), the concentration for half-maximal inhibition (IC50) in assay [1] (HIF-2a PANC, mean of runs) was 46.9 µM; in assay [1] (HIF-2a PANC, run 1), 21 µM; in assay [1] (HIF-2a PANC, run 2), 72.7 µM; in assay [1] (HIF-2a, mean of runs) it was < 30 µM (inactive); in assay [1] (HIF-2a, run 1), under 30 µM; in assay [1] (HIF-2a, run 2) it was under 30 µM. Moreover, the IC50 in assay [2] (run 1) and in assay [2] (run 2) was over 99 µM in each case.
For the compound `Cc1ccc(C(C)C)c(OCc2ccc(-c3nnco3)cc2)c1`, the IC50 is > 99 µM (inactive) in assay [1] (HIF-2a PANC, mean of runs); over 99 µM in assay [1] (HIF-2a PANC, run 1); over 99 µM in assay [1] (HIF-2a PANC, run 2); 1.7 µM in assay [1] (HIF-2a, mean of runs); 1.92 µM in assay [1] (HIF-2a, run 1); 1.49 µM in assay [1] (HIF-2a, run 2). For the same compound, the IC50 in assay [2] (run 1) and in assay [2] (run 2) was over 99 µM each time.
On to `O=C(Nc1ccc(N2CCOCC2)cc1)c1cnccn1`, for which the IC50 entry in assay [1] (HIF-2a PANC, mean of runs) is “inactive”; in assay [2] (mean of runs), “inactive”. Also, the IC50 was 31.5 µM in assay [1] (HIF-2a PANC, run 1); 33.2 µM in assay [1] (HIF-2a PANC, run 2); 9.42 µM in assay [1] (HIF-2a, mean of runs); 9.5 µM in assay [1] (HIF-2a, run 1); 9.33 µM in assay [1] (HIF-2a, run 2); 14.5 µM in assay [2] (run 1). Also, the 50% inhibitory concentration (IC50) in assay [2] (run 2) was found to be 21.4 µM.
As to `O=C(Nc1cc(S(=O)(=O)N2CCOCC2)ccc1Cl)c1cc([N+](=O)[O-])ccc1Cl`, the IC50 in assay [1] (HIF-2a PANC, run 1) was over 99 µM; in assay [1] (HIF-2a PANC, run 2), 80.5 µM; in assay [1] (HIF-2a, run 1), 15.1 µM; in assay [1] (HIF-2a, run 2), 13.9 µM; in assay [2] (run 1) it was 23.9 µM; in assay [2] (run 2) it was 17.6 µM. Moreover, the IC50 result in assay [1] (HIF-2a, mean of runs) is “inactive”; in assay [2] (mean of runs), “inactive”.
As to `O=C(Nc1ccc(Cl)cc1Cl)c1cccc(N2C(=O)C=CC2=O)c1`, the IC50 in assay [1] (HIF-2a PANC, run 1) is over 99 µM; in assay [1] (HIF-2a PANC, run 2), 28.1 µM; in assay [1] (HIF-2a, mean of runs) it was 8.1 µM; in assay [1] (HIF-2a, run 1), 7.79 µM; in assay [1] (HIF-2a, run 2), 8.42 µM; in assay [2] (mean of runs), 41.1 µM. Moreover, the IC50 is 47.8 µM in assay [2] (run 1) and 34.5 µM in assay [2] (run 2).
In the case of `COC(=O)COc1ccc(-c2nccc(-c3ccccn3)n2)cc1`, the IC50 is 2.88 µM in assay [1] (HIF-2a PANC, mean of runs); 3.28 µM in assay [1] (HIF-2a PANC, run 1); 2.48 µM in assay [1] (HIF-2a PANC, run 2); 1.07 µM in assay [1] (HIF-2a, mean of runs); 1.04 µM in assay [1] (HIF-2a, run 1); 1.11 µM in assay [1] (HIF-2a, run 2). In addition, the IC50 was found to be 0.274 µM in assay [2] (run 1) and 0.637 µM in assay [2] (run 2). For the same compound, the IC50 entry in assay [2] (mean of runs) is “inactive”.
For `Cc1nc2cc(-c3cccc(F)c3)nn2c(C)c1CCC(=O)N1CCC2(CC1)OCCO2`, the IC50 in assay [1] (HIF-2a PANC, mean of runs) was 2.03 µM; in assay [1] (HIF-2a PANC, run 1), 2.17 µM; in assay [1] (HIF-2a PANC, run 2) it was 1.9 µM; in assay [1] (HIF-2a, mean of runs), 1.27 µM; in assay [1] (HIF-2a, run 1), 1.27 µM; in assay [1] (HIF-2a, run 2) it was 1.28 µM. Also, the IC50 is 68.8 µM in assay [2] (mean of runs), 81.5 µM in assay [2] (run 1) and 56.2 µM in assay [2] (run 2).
As for `O=[N+]([O-])C1C(c2ccccc2)C12c1ccccc1-c1ccccc12` (stereo not given), the IC50 was over 99 µM in assay [1] (HIF-2a PANC, run 1); under 3 µM in assay [1] (HIF-2a PANC, run 2); 7.05 µM in assay [1] (HIF-2a, mean of runs); 7.84 µM in assay [1] (HIF-2a, run 1); 6.26 µM in assay [1] (HIF-2a, run 2); 40.8 µM in assay [2] (mean of runs). Further, the IC50 in assay [2] (run 1) was determined as 41.2 µM; in assay [2] (run 2), 40.3 µM.
Consider `COc1ccc(OCc2cccc(C(=O)NN)c2)cc1`, for which the IC50 was > 99 µM (inactive) in assay [1] (HIF-2a PANC, mean of runs); over 99 µM in assay [1] (HIF-2a PANC, run 1); over 99 µM in assay [1] (HIF-2a PANC, run 2); 7.89 µM in assay [1] (HIF-2a, mean of runs); 7.68 µM in assay [1] (HIF-2a, run 1); 8.1 µM in assay [1] (HIF-2a, run 2). Moreover, the 50% inhibitory concentration (IC50) in assay [2] (run 1) and in assay [2] (run 2) was over 99 µM in each case.
`O=C(Nc1ccc(F)cc1)c1nc(S(=O)(=O)Cc2ccccc2)ncc1Cl`: the IC50 result is “inactive” in assay [1] (HIF-2a PANC, mean of runs) and “inactive” in assay [2] (mean of runs). The IC50 in assay [1] (HIF-2a PANC, run 1) was 26.2 µM; in assay [1] (HIF-2a PANC, run 2), 22 µM; in assay [1] (HIF-2a, mean of runs), 7.59 µM; in assay [1] (HIF-2a, run 1), 7.71 µM; in assay [1] (HIF-2a, run 2) it was 7.47 µM; in assay [2] (run 1), 14.6 µM. In assay [2] (run 2), the IC50 came to 16.7 µM.
